Like-named read-outs stand apart in the source and are kept apart here. Ends that are not written are not given here. Peptide text beside a SMILES is read from it. * marks the point of attachment. Butyryl = CCCC(=O)*
How the values were obtained:
[1] = test system: horse erythrocytes; conditions: red cells of horse, 50 µM
[2] = test system: X. fastidiosa subsp. fastidiosa IVIA 5387.2
[3] = test system: E. coli 0111:B4 LPS; assay type: biochemical, Escherichia coli
[4] = test system: tobacco leaves; conditions: 150 µM; after 48 h

## CCCC(=O)NCCCC[C@@H](NC(=O)[C@H](CC(C)C)NC(=O)[C@H](CCCCN)NC(=O)[C@H](CCCCN)NC(C)=O)C(=O)N[C@@H](CCCCN)C(=O)N[C@@H](CCCCN)C(=O)N[C@H](C(=O)N[C@@H](CC(C)C)C(=O)N[C@H](C(=O)N[C@@H](Cc1ccc(O)cc1)C(=O)N[C@@H](CC(C)C)C(N)=O)[C@@H](C)CC)[C@@H](C)CC [BP547, Ac-KKLk(COC3H7)KKILIYL-NH2]
[1]
  Hemolytic activity (%): 0%
[2]; 50 µM
  Bactericidal activity Level: Low (key: Very High: very high bactericidal activity (>2.5 log); High: high bactericidal activity (between 2.0 and 2.5 log); Moderate: a moderate activity (between 1.5 and 2.0 log); Low: low active (<1.5 log))
  Bactericidal activity Reduction in viability (Log N0/N): 0,05 Log N0/N
[3]
  LPS neutralization Ratio (treatment/NTC): 0,99
[4]
  Phytotoxicity: diameter of the lesion: 2 mm

## CCCCCC(=O)NCCCC[C@H](NC(=O)[C@H](CCCCN)NC(=O)[C@H](CCCCN)NC(=O)[C@@H](Cc1ccccc1)NC(=O)[C@H](CC(C)C)NC(=O)[C@H](CCCCN)NC(=O)[C@H](CCCCN)NC(C)=O)C(=O)N[C@@H](CC(C)C)C(=O)N[C@@H](CCCCN)C(=O)N[C@@H](Cc1ccc(O)cc1)C(=O)N[C@@H](CC(C)C)C(N)=O [BP494, Ac-KKLfKKK(COC5H11)LKYL-NH2]
[1]
  Hemolytic activity (%): 0%
[2]; 50 µM
  Bactericidal activity Level: Low (key: Very High: very high bactericidal activity (>2.5 log); High: high bactericidal activity (between 2.0 and 2.5 log); Moderate: a moderate activity (between 1.5 and 2.0 log); Low: low active (<1.5 log))
  Bactericidal activity Reduction in viability (Log N0/N): 1,21 Log N0/N
[3]
  LPS neutralization Ratio (treatment/NTC): 0,51
[4]
  Phytotoxicity: diameter of the lesion: 6 mm

## CCCCCC(=O)NCCCC[C@H](NC(=O)[C@H](Cc1ccc(O)cc1)NC(=O)[C@H](CCCCN)NC(=O)[C@H](CC(C)C)NC(=O)[C@@H](NC(=O)[C@H](CCCCN)NC(=O)[C@H](CCCCN)NC(=O)[C@@H](Cc1ccccc1)NC(=O)[C@H](CC(C)C)NC(=O)[C@H](CCCCN)NC(=O)[C@H](CCCCN)NC(C)=O)[C@@H](C)CC)C(N)=O [BP495, Ac-KKLfKKILKYK(COC5H11)-NH2]
[1]
  Hemolytic activity (%): 0%
[2]; 12.5 µM
  Bactericidal activity Reduction in viability (Log N0/N): 0,03 Log N0/N
[2]; 50 µM
  Bactericidal activity Level: High (key: Very High: very high bactericidal activity (>2.5 log); High: high bactericidal activity (between 2.0 and 2.5 log); Moderate: a moderate activity (between 1.5 and 2.0 log); Low: low active (<1.5 log))
[3]
  LPS neutralization Ratio (treatment/NTC): 0,55
[4]
  Phytotoxicity: diameter of the lesion: 6 mm

## CCCC(=O)NCCCC[C@H](NC(=O)[C@H](CCCCN)NC(=O)[C@H](CCCCN)NC(=O)[C@@H](Cc1ccccc1)NC(=O)[C@H](CC(C)C)NC(=O)[C@H](CCCCN)NC(=O)[C@H](CCCCN)NC(C)=O)C(=O)N[C@@H](CC(C)C)C(=O)N[C@@H](CCCCN)C(=O)N[C@@H](Cc1ccc(O)cc1)C(=O)N[C@@H](CC(C)C)C(N)=O [BP548, Ac-KKLfKKK(COC3H7)LKYL-NH2]
[1]
  Hemolytic activity (%): 0%
[2]; 50 µM
  Bactericidal activity Level: Low (key: Very High: very high bactericidal activity (>2.5 log); High: high bactericidal activity (between 2.0 and 2.5 log); Moderate: a moderate activity (between 1.5 and 2.0 log); Low: low active (<1.5 log))
  Bactericidal activity Reduction in viability (Log N0/N): 0,28 Log N0/N
[3]
  LPS neutralization Ratio (treatment/NTC): 0,65
[4]
  Phytotoxicity: diameter of the lesion: 6 mm

## CCCC(=O)NCCCC[C@H](NC(=O)[C@H](CCCCN)NC(=O)[C@H](CC(C)C)NC(=O)[C@@H](NC(=O)[C@H](CCCCN)NC(=O)[C@H](CCCCN)NC(=O)[C@H](Cc1c[nH]cn1)NC(=O)[C@H](CC(C)C)NC(=O)[C@H](CCCCN)NC(=O)[C@H](CCCCN)NC(C)=O)[C@@H](C)CC)C(=O)N[C@@H](CC(C)C)C(N)=O [BP501, Ac-KKLHKKILKK(COC3H7)L-NH2] (Ac-KKLHKKILKK(Butyryl)L-NH2)
[1]
  Hemolytic activity (%): 2%
[2]; 50 µM
  Bactericidal activity Level: Low (key: Very High: very high bactericidal activity (>2.5 log); High: high bactericidal activity (between 2.0 and 2.5 log); Moderate: a moderate activity (between 1.5 and 2.0 log); Low: low active (<1.5 log))
  Bactericidal activity Reduction in viability (Log N0/N): 0,30 Log N0/N
[3]
  LPS neutralization Ratio (treatment/NTC): 0,71
[4]
  Phytotoxicity: diameter of the lesion: 0 mm

## CCCC(=O)NCCCC[C@@H](NC(=O)[C@H](CC(C)C)NC(=O)[C@H](CCCCN)NC(=O)[C@H](CCCCN)NC(C)=O)C(=O)N[C@@H](CCCCN)C(=O)N[C@@H](CCCCN)C(=O)N[C@H](C(=O)N[C@@H](CC(C)C)C(=O)N[C@@H](CCCCN)C(=O)N[C@@H](Cc1ccc(O)cc1)C(=O)N[C@@H](CC(C)C)C(N)=O)[C@@H](C)CC [BP550, Ac-KKLk(COC3H7)KKILKYL-NH2]
[1]
  Hemolytic activity (%): 3%
[2]; 50 µM
  Bactericidal activity Level: Low (key: Very High: very high bactericidal activity (>2.5 log); High: high bactericidal activity (between 2.0 and 2.5 log); Moderate: a moderate activity (between 1.5 and 2.0 log); Low: low active (<1.5 log))
  Bactericidal activity Reduction in viability (Log N0/N): 0,00 Log N0/N
[3]
  LPS neutralization Ratio (treatment/NTC): 1,09
[4]
  Phytotoxicity: diameter of the lesion: 5 mm

## CCCC(=O)NCCCC[C@H](NC(C)=O)C(=O)N[C@@H](CCCCN)C(=O)N[C@@H](CC(C)C)C(=O)N[C@H](Cc1ccccc1)C(=O)N[C@@H](CCCCN)C(=O)N[C@@H](CCCCN)C(=O)N[C@H](C(=O)N[C@@H](CC(C)C)C(=O)N[C@@H](CCCCN)C(=O)N[C@@H](Cc1ccc(O)cc1)C(=O)N[C@@H](CC(C)C)C(N)=O)[C@@H](C)CC [BP545, Ac-K(COC3H7)KLfKKILKYL-NH2]
[1]
  Hemolytic activity (%): 5%
[2]; 12.5 µM
  Bactericidal activity Reduction in viability (Log N0/N): 0,54 Log N0/N
[2]; 50 µM
  Bactericidal activity Level: High (key: Very High: very high bactericidal activity (>2.5 log); High: high bactericidal activity (between 2.0 and 2.5 log); Moderate: a moderate activity (between 1.5 and 2.0 log); Low: low active (<1.5 log))
[3]
  LPS neutralization Ratio (treatment/NTC): 0,56
[4]
  Phytotoxicity: diameter of the lesion: 4 mm

## NIKISGKWKAQKRFLK-NH2 [BPI(84-99), NIKISGKWKAQKRFLK-NH2, reference compound]
[1]
  Hemolytic activity (%): 7%
[2]; 50 µM
  Bactericidal activity Level: Low (key: Very High: very high bactericidal activity (>2.5 log); High: high bactericidal activity (between 2.0 and 2.5 log); Moderate: a moderate activity (between 1.5 and 2.0 log); Low: low active (<1.5 log))
  Bactericidal activity Reduction in viability (Log N0/N): 0,84 Log N0/N
[3]
  LPS neutralization Ratio (treatment/NTC): 0,29
[4]
  Phytotoxicity: diameter of the lesion: 1 mm

## CCCC(=O)NCCCC[C@H](NC(=O)[C@H](CCCCN)NC(=O)[C@H](CCCCN)NC(C)=O)C(=O)N[C@H](Cc1ccccc1)C(=O)N[C@@H](CCCCN)C(=O)N[C@@H](CCCCN)C(=O)N[C@H](C(=O)N[C@@H](CC(C)C)C(=O)N[C@@H](CCCCN)C(=O)N[C@@H](Cc1ccc(O)cc1)C(=O)N[C@@H](CC(C)C)C(N)=O)[C@@H](C)CC [BP549, Ac-KKK(COC3H7)fKKILKYL-NH2]
[1]
  Hemolytic activity (%): 1%
[2]; 50 µM
  Bactericidal activity Level: Low (key: Very High: very high bactericidal activity (>2.5 log); High: high bactericidal activity (between 2.0 and 2.5 log); Moderate: a moderate activity (between 1.5 and 2.0 log); Low: low active (<1.5 log))
  Bactericidal activity Reduction in viability (Log N0/N): 1,19 Log N0/N
[3]
  LPS neutralization Ratio (treatment/NTC): 1,10
[4]
  Phytotoxicity: diameter of the lesion: 5 mm

## RVQGRWKVRASFFK-NH2 [LBP-14, RVQGRWKVRASFFK-NH2, reference compound]
[1]
  Hemolytic activity (%): 7%
[2]; 50 µM
  Bactericidal activity Level: Low (key: Very High: very high bactericidal activity (>2.5 log); High: high bactericidal activity (between 2.0 and 2.5 log); Moderate: a moderate activity (between 1.5 and 2.0 log); Low: low active (<1.5 log))
  Bactericidal activity Reduction in viability (Log N0/N): 0,51 Log N0/N
[3]
  LPS neutralization Ratio (treatment/NTC): 0,23
[4]
  Phytotoxicity: diameter of the lesion: 1 mm

## CCCC(=O)NCCCC[C@H](NC(=O)[C@H](CC(C)C)NC(=O)[C@@H](NC(=O)[C@H](CCCCN)NC(=O)[C@H](CCCCN)NC(=O)[C@@H](Cc1ccccc1)NC(=O)[C@H](CC(C)C)NC(=O)[C@H](CCCCN)NC(=O)[C@H](CCCCN)NC(C)=O)[C@@H](C)CC)C(=O)N[C@@H](Cc1ccc(O)cc1)C(=O)N[C@@H](CC(C)C)C(N)=O [BP499, Ac-KKLfKKILK(COC3H7)YL-NH2]
[1]
  Hemolytic activity (%): 2%
[2]; 3.1 µM
  Bactericidal activity Reduction in viability (Log N0/N): 0,63 Log N0/N
[2]; 50 µM
  Bactericidal activity Level: High (key: Very High: very high bactericidal activity (>2.5 log); High: high bactericidal activity (between 2.0 and 2.5 log); Moderate: a moderate activity (between 1.5 and 2.0 log); Low: low active (<1.5 log))
[3]
  LPS neutralization Ratio (treatment/NTC): 0,34
[4]
  Phytotoxicity: diameter of the lesion: 7 mm

## CCCC(=O)NCCCC[C@H](NC(=O)[C@@H](Cc1ccccc1)NC(=O)[C@H](CC(C)C)NC(=O)[C@H](CCCCN)NC(=O)[C@H](CCCCN)NC(C)=O)C(=O)N[C@@H](CCCCN)C(=O)N[C@H](C(=O)N[C@@H](CC(C)C)C(=O)N[C@@H](CCCCN)C(=O)N[C@@H](Cc1ccc(O)cc1)C(=O)N[C@@H](CC(C)C)C(N)=O)[C@@H](C)CC [BP498, Ac-KKLfK(COC3H7)KILKYL-NH2]
[1]
  Hemolytic activity (%): 9%
[2]; 50 µM
  Bactericidal activity Level: Moderate (key: Very High: very high bactericidal activity (>2.5 log); High: high bactericidal activity (between 2.0 and 2.5 log); Moderate: a moderate activity (between 1.5 and 2.0 log); Low: low active (<1.5 log))
  Bactericidal activity Reduction in viability (Log N0/N): 1,58 Log N0/N
[3]
  LPS neutralization Ratio (treatment/NTC): 0,40
[4]
  Phytotoxicity: diameter of the lesion: 7 mm
